We go through one molecule from patent publication US20150175585A1, “FUSED QUINONIC COMPOUNDS” (CENTRO ATLANTICO DEL MEDICAMENTO S.A (CEAMED, S.A.), priority 2012, published 2015).

The subject of test [1] is STAT5 transcription (pSPI-GLE1-luc) in HEK-GHR cells. Kind of test: HEK-GHR STAT5 transcription assay (luciferase reporter, rhGH stimulated). Particulars: Homo sapiens, compound 45 minutes before 50 nM rhGH, six hours, read-out: Activity (IC50, reduction of luciferase activity). The test is classed as cell-based, human. Background: In a reporter assay the amount or activity of a reporter protein is the signal.

For a further test, the system named is K562 cells. Kind of test: K562-based MTT cell viability assay. The arrangement: species or system human. The settings on record: Homo sapiens, 48 h, read-out: Activity (IC50, reduction of cell viability). The procedure:
Cell viability was assayed by measuring the mitochondrial reduction of the tetrazolium salt 3-(4,5-methyltiazol-2yl)-2,5diphenyl-tetrazolium bromide] (MTT) (Applichen; A2231,0010) (Mosmann T. J Immunol Methods. 1983 16; 65(1-2):55-63; Chuan Y-C et al 2010. Oncogene. 29 (10), 1531-1542. Cells were seeded in 96-well plates in medium supplemented with 10% FBS (Lonza Cat. No: 14-502F), 2 mM L-Glut (Lonza Cat. No: BE17-605E) and 100 U/ml PEST (Lonza Cat. No: DE17-605E) at a cell density of 5000-20000 cells/well. Cells were seeded at a density according to their exponential growth phase. Vehicle (0.05% DMSO) or drug were added to culture medium at the indicated concentrations (10 to 0.01 microM) during 48 h. Then, MTT (0.3 mg/ml) was added to cells following by incubation for 2-4 h at 37° C. in the dark. The medium was then discarded and the formazan precipitate was solubilized by addition of 20% SDS (Sigma; L-5750) in 0.02N HCl (Panreac; 131020.1611) for 12-16 h. The optical density was measured at 595 nm with the iMark Microplate Reader (BioRad, USA). Data was expressed as percent growth above the level in controls and the results in figures were plotted as means±SEM of each test point from 3 replicates.
Statistical analysis. The concentration of drug that provokes 50% reduction of cell viability (IC50) was determined by using non-linear regression analysis and data were fitted to a log concentration vs normalized response curve in GraphPad software v5 (San Diego, Calif.).
Background: Tetrazolium assays rely on reduction of a dye to a coloured formazan, in cell work by metabolically active cells.

In test [2] the test system is HEL cells. Description: HEL-based MTT cell viability assay. The arrangement: species or system human. Particulars: Homo sapiens, 48 h, read-out: Activity (IC50, reduction of cell viability).
In test [3] the test system is HEL cells. Kind of test: Induction of apoptosis in HEL cells (annexin-V-FITC/propidium iodide flow cytometry). The test is classed as cell-based, human. The settings on record: 24 or 48 hours. The procedure: FIG. 3. • Analysis of phosphatidylserine externalization in human erythroleukemia cells (HEL) treated with compound 4 or the reported JAK-STAT inhibitor WP 1066. A) At different concentrations for 24 hours. B) Representation of the data obtained after treatment of cells with 5 μM of compound 4 for 48 hours compared to vehicle. (C) Data obtained after treatment of the cells with a concentration of 5 μM of compound 4 for 24 or 48 hours. Data are representative of three experiments. * Signifies a P<0.01 difference from control. ^0 Signifies a P<0.001 difference from control.
Human erythroleukemia (HEL) cells, at a density of 1.5×10^5 cells/ml, were treated with compound 4 at the indicated concentrations for 24 or 48 hours. The cells were incubated with propidium iodide and annexin-V-FITC and the quantity of phosphatidylserine externalized was determined using flow cytometry.
A general note: A flow cytometer gives signals particle by particle.

Another test has as its system K562 tumors. Description: In vivo efficacy, K562 tumor xenografts in NOD-SCID mice. The settings on record: 10 mg/kg i.p. daily except Saturdays and Sundays, 25 day study; P=0.004 day 4, P=0.007 day 25. An excerpt:
Mice were sacrificed when their tumor diameters reached 2 cm, or when they became moribund.

By IC50 is commonly meant the point on the concentration scale where inhibition reaches its midpoint.

As to `N#Cc1ccc(C2C3=C(CCCC3=O)OC3=C2C(=O)c2ccccc2C3=O)cc1` (centres unmarked) [Compound 4, 4-(1,6,11-trioxo-2,3,4,6,11,12-hexahydro-1H-benzo[b]xanthen-12-yl)benzonitrile], the IC50 in test [1] is below 1 µM; in the test with K562 cells, below 1 µM; with HEL cells [2], below 3 µM. Further, in the test on HEL cells [3], the “apoptosis of HEL cells (phosphatidylserine externalization)” value was “induced, in a dose and time dependent manner, apoptosis”. Besides, the “tumor growth (tumor volume) compared to control group” value in the test with K562 tumors is “pronounced, and statistically significant reduction”.
